{"source": "patent US20070258941A1", "about": "“Methods and compositions for remediation of disc herniation by modifying structure” (priority 2006, published 2007)", "key": {"[1]": {"tested_on": "rabbit lumbar intervertebral discs", "test": "Effect of polylysine on disc height (disc height index, DHI) after injection into rabbit lumbar discs", "assay_type": "in vivo", "conditions": "for L2/3 DHI, Average / L2/3 DHI: injected disc L2/3; for L2/3 DHI, Average / L4/5 DHI, Average: average of six animals; for L2/3 DHI, Average / L2/3 DHI / L4/5 DHI, Average / L4/5 DHI: untreated L3/4 disc = 100; for L2/3 DHI / L4/5 DHI: individual animals 1-6; for L4/5 DHI, Average / L4/5 DHI: injected disc L4/5", "method": "FIG. 1 is a set of bar graphs showing intervertebral disc heights in rabbits injected with 30-70 kDa polylysine at each of lumbar 2/3 and 4/5, compared with heights of control untreated lumbar discs 3/4 (100%). Disc heights were measured at each of two weeks (FIG. 1, Panel A), four weeks (FIG. 1, Panel B), and six weeks (FIG. 1, Panel C). A decrease in the DHI of approximately 20% was maintained for 6 weeks in this study.\nStatistical Analyses: Statistical analyses were performed by one way ANOVA with Fisher's PLSD test as a post hoc test.\nRabbit discs (six animals) were injected with 30-70 kDa polylysine into discs L4/5 and L2/3. As controls, the L3/4 discs were untreated in each of the animals.\nDisc height was measured at each of 2, 4 and 6 weeks after injection, and the normalized percentages of starting disc heights observed are shown in FIG. 1. Disc height was reduced by the treatment to about 80% of the initial values, and the decrease of 20% was maintained for the full 6-week observation period."}, "[2]": {"tested_on": "bovine cartilage explants", "test": "Distribution kinetics / permeation of FITC-labeled polylysine into cartilage explants (fluorescence of cryostat sections)", "assay_type": "in vitro ADME", "conditions": "for time for permeation to achieve maximal levels (completed): FITC-labeled polymer, cartilage explants submerged in solution", "method": "FIG. 2 is a set of photographs of bovine cartilage explants that were incubated with FITC-labeled polylysine (15-30 kDa in size, panels F, G, H, I, and J; and 30-70 kDa in size, panels K, L, M, N, and O) or control untreated cartilage (FIG. 2 panels A, B, C, D, and E). Photographs were taken at each of time points 0.5 hour (FIG. 2, panels A, F, and K), 1.0 hour (FIG. 2, panels B, G, and L), 3 hours (FIG. 2, panels C, H, and M), 7 hours (FIG. 2, panels D, I, and N) and 12 hours (FIG. 2, panels E, J, and O).\nAfter a predetermined time, tissue was washed, frozen, and 10 micron sections were produced using a cryostat."}}, "note": "Where “and” joins values, the source holds several entries; their conditions need not be identical. Equal entries are not always repeated."}
{"substance": "polylysine [30-70 kDa polylysine]", "values": [{"measurement": "L2/3 DHI, Average", "setting": "[1]; 2 weeks after injection", "result": 79.48, "unit": "%"}, {"measurement": "L2/3 DHI", "setting": "[1]; 2 weeks after injection", "result": "77.13% and 68.43% and 70.29% and 91.98% and 80.01% and 89.04%"}, {"measurement": "L4/5 DHI, Average", "setting": "[1]; 2 weeks after injection", "result": 78.67, "unit": "%"}, {"measurement": "L4/5 DHI", "setting": "[1]; 2 weeks after injection", "result": "90.03% and 77.07% and 77.69% and 72.34% and 81.34% and 73.56%"}, {"measurement": "L2/3 DHI, Average", "setting": "[1]; 4 weeks after injection", "result": 74.86, "unit": "%"}, {"measurement": "L2/3 DHI", "setting": "[1]; 4 weeks after injection", "result": "79.11% and 93.42% and 80.98% and 66.08% and 63.83% and 65.74%"}, {"measurement": "L4/5 DHI, Average", "setting": "[1]; 4 weeks after injection", "result": 79.65, "unit": "%"}, {"measurement": "L4/5 DHI", "setting": "[1]; 4 weeks after injection", "result": "79.68% and 93.65% and 66.64% and 79.43% and 73.86% and 84.63%"}, {"measurement": "L2/3 DHI, Average", "setting": "[1]; 6 weeks after injection", "result": 79.51, "unit": "%"}, {"measurement": "L2/3 DHI", "setting": "[1]; 6 weeks after injection", "result": "78.77% and 93.30% and 96.63% and 65.59% and 73.66% and 69.09%"}, {"measurement": "L4/5 DHI, Average", "setting": "[1]; 6 weeks after injection", "result": 81.57, "unit": "%"}, {"measurement": "L4/5 DHI", "setting": "[1]; 6 weeks after injection", "result": "87.13% and 96.43% and 81.53% and 83.27% and 61.60% and 79.46%"}, {"measurement": "disc height after treatment, of the initial values", "setting": "[1]; rabbit discs L2/3 and L4/5, 2, 4 and 6 weeks after injection", "result": "about 80%"}]}
{"substance": "polylysine [longer polymer]", "values": [{"measurement": "time for permeation to achieve maximal levels (completed)", "setting": "[2]", "result": "7 to 12", "unit": "h"}]}
{"substance": "polylysine [shorter cationic polymer]", "values": [{"measurement": "time for permeation to achieve maximal levels (completed)", "setting": "[2]", "result": "3 to 7", "unit": "h"}, {"measurement": "rapidity of permeation of cartilage", "setting": "[2]; compared to the longer chain length (30-70 kDa)", "result": "enhanced"}]}
